The source made the active and inactive calls.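 Rule for the calls: active = Change of at least 30% in epidermal growth factor receptor protein level versus solvent-only controls, drop or rise; inactive = receptor level change under 30% either way.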
Test system: HCT116 EGFR protein level, western blot, 24 h
Assay: reduction of EGFR protein levels, late-stage follow-up, counter-screen for KLF5 inhibitor project, cell-based, HCT116 colorectal carcinoma, chemiluminescent western blot (AID 588648)
Conditions: at 10 µM; for inhibition: stronger effect = higher value; for fold change: measured here: EGFR band fold change vs DMSO

| Compound | inhibition | fold change |
| --- | --- | --- |
| CN(C(=O)CNC(=O)/C=C/c1cccc(Cl)c1)C1CCS(=O)(=O)CC1 | 12.7% (inactive) | -1.15 |
| CN(C(=O)COC(=O)/C=C/c1cccc([N+](=O)[O-])c1)C1CCS(=O)(=O)C1 (stereo unspecified) | 1.68% (inactive) | -1.02 |
| CN(C(=O)CNC(=O)/C=C/c1cccc(Cl)c1)C1CCS(=O)(=O)C1 (stereo unspecified) | 10.3% (inactive) | -1.11 |

— PubChem BioAssay AID588648 (The Scripps Research Institute Molecular Screening Center, 2011)
